In patent publication US20210139484A1, “DIHYDROISOQUINOLINE-2(1H)-CARBOXAMIDE AND RELATED COMPOUNDS AND THEIR USE IN TREATING MEDICAL CONDITIONS” (GOSSAMER BIO SERVICES, INC., priority 2018, published 2021):

Target: T1, human HPK1 protein (Homo sapiens, UniProt Q92918)
T1 construct: recombinant human HPK1 protein (a.a. 1-346) was expressed in Sf9 insect cells; GST (N); purchased Signalchem M23-11G; host or cells: Sf9 insect cells (baculovirus)
T1 sequence (Q92918 1-346): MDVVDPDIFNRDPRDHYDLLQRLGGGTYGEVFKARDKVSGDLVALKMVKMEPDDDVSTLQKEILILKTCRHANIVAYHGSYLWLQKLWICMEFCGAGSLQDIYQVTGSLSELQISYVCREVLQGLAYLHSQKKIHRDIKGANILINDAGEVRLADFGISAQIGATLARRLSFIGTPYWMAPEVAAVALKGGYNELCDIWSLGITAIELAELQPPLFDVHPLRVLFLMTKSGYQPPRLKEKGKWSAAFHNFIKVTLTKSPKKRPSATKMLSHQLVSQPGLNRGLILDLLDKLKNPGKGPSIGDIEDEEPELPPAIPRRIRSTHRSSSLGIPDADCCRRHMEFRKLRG
Experiment: Human HPK1 protein TR-FRET assay
Type: biochemical
Settings: 1 mM ATP, Table 20
Method in brief: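 GST-tagged HPK1 (a.a. 1-346, Sf9-expressed) at 10 nM phosphorylated 100 nM ULight CREBtide with 1 mM ATP in Tris pH 7.5, MgCl2, NP-40, DTT, 1% DMSO, 60 minutes at room temperature. Phospho-Ser133 detected by Eu-antibody TR-FRET (665/615 nm ratio); IC50 from 4-parameter fit against DMSO control.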

| IC50 [nM] | SMILES |
| --- | --- |
| < 500 | CC[C@@H]1CN(C(=O)Nc2cnc(OC3CCN(C)CC3)c(C(F)(F)F)c2)Cc2cc(Oc3ccnc4[nH]c(C5(O)CC5)cc34)cnc21 [XIV-77] |
| < 500 | C[C@H]1CN(C(=O)Nc2ccc(CN3CCN(C)CC3)c(C(F)(F)F)c2)Cc2cc(Oc3ccnc4[nH]c(CO)cc34)cnc21 [XIV-78] |
| < 500 | CC[C@H]1CN(C(=O)Nc2ccc(CN3CCN(CC)CC3)c(C(F)(F)F)c2)Cc2cc(Oc3ccnc4[nH]c(C5(O)CC5)cc34)cnc21 [XIV-79] |
| < 500 | C[C@H]1CN(C(=O)Nc2ccc(CN3CCN(C)CC3)c(C(F)(F)F)c2)Cc2cc(Oc3ccnc4[nH]c(C5CC5)cc34)cnc21 [XIV-81] |
| < 500 | CC[C@H]1CN(C(=O)Nc2ccc(CN3CCN(C)CC3)c(C(F)(F)F)c2)Cc2cc(Oc3ccnc4[nH]c(C(N)=O)cc34)cnc21 [XIV-84] |
| < 500 | CC[C@H]1CN(C(=O)Nc2ccc(CN3CCN(C)CC3)c(C(F)(F)F)c2)Cc2cc(Oc3ccnc4[nH]c(C(=O)NC)cc34)cnc21 [XIV-85] |
| < 500 | C[C@H]1CN(C(=O)Nc2ccc(CN3CCN(C)CC3)c(C(F)(F)F)c2)Cc2cc(Oc3ccnc4[nH]c(C(N)=O)cc34)cnc21 [XIV-86] |
| < 500 | CCC1CN(C(=O)Nc2ccc(CN3CCN(CC)CC3)c(C(F)(F)F)c2)Cc2cc(Oc3cc(NC(=O)OC)ncc3F)cnc21 (stereo not shown) [XIV-87] |
| < 500 | C[C@H]1CN(C(=O)Nc2ccc(CN3CCN(C)CC3)c(C(F)(F)F)c2)Cc2cc(Oc3c(F)cnc4[nH]c(C5(O)COC5)cc34)cnc21 [XIV-88] |
| < 500 | Cc1cc2c(Oc3cnc4c(c3)CN(C(=O)Nc3ccc(CN5CCN(C)CC5)c(OC(F)(F)F)c3)C[C@H]4C)ccnc2[nH]1 [XIV-89] |
| < 500 | Cc1cc2c(Oc3cnc4c(c3)CN(C(=O)Nc3ccc(CN5CCN(C)CC5)c(C(F)(F)F)c3)C[C@@H]4C)ccnc2[nH]1 [XIV-90] |
| < 500 | Cc1cc2c(Oc3cnc4c(c3)CN(C(=O)Nc3ccc(CN5CCN(C)CC5)c(C(F)(F)F)c3)C[C@H]4C)ccnc2[nH]1 [XIV-91] |
| < 500 | CCC1CN(C(=O)Nc2ccc(CN3CCN(CC)CC3)c(C(F)(F)F)c2)Cc2cc(Oc3cc(NC(=O)c4cnn(C)c4)ncc3F)cnc21 (stereo not shown) [XIV-92] |
| < 500 | Cc1cc2c(Oc3cnc4c(c3)CN(C(=O)Nc3ccc(CN5CCN(C)CC5)c(OC(F)F)c3)C[C@H]4C)ccnc2[nH]1 [XIV-93] |
| < 500 | Cc1cc2c(Oc3cnc4c(c3)CN(C(=O)Nc3ccc(CN5CCNC6(CC6)C5)c(C(F)(F)F)c3)C[C@H]4C)ccnc2[nH]1 [XIV-94] |
| < 500 | CCN1CCN(Cc2ccc(NC(=O)N3Cc4cc(Oc5c(F)cnc6[nH]c(CO)cc56)cnc4[C@@H](C)C3)cc2C(F)(F)F)CC1 [XIV-95] |
| < 500 | C[C@H]1CN(C(=O)Nc2ccc(CN3CCN(C)CC3)c(C(F)(F)F)c2)Cc2cc(Oc3ccnc4[nH]c(C5(O)CC5)cc34)cnc21 [XIV-97] |
| 500 to 5000 | Cc1cc2c(Oc3cnc4c(c3)CN(C(=O)Nc3ccc(CN5C[C@H]6C[C@@H]5CN6C)c(C(F)(F)F)c3)C[C@H]4C)ccnc2[nH]1 [XIV-99] |
| < 500 | CC[C@H]1CN(C(=O)Nc2ccc(CN3CCN(C)CC3)c(C(F)(F)F)c2)Cc2cc(Oc3ccnc4[nH]c(C(=O)N5CCCC5)cc34)cnc21 [XIV-102] |
| < 500 | CC[C@H]1CN(C(=O)Nc2ccc(CN3CCN(C)CC3)c(C(F)(F)F)c2)Cc2cc(Oc3ccnc4[nH]c(C(=O)N(C)CCO)cc34)cnc21 [XIV-105] |
| < 500 | CC[C@H]1CN(C(=O)Nc2ccc(CN3CCN(C)CC3)c(C(F)(F)F)c2)Cc2cc(Oc3ccnc4[nH]c(C(=O)NCCCO)cc34)cnc21 [XIV-108] |

| IC50 [nM] | SMILES |
| --- | --- |
| < 500 | CC[C@H]1CN(C(=O)Nc2ccc(CN3CCN(C)CC3)c(C(F)(F)F)c2)Cc2cc(Oc3ccnc4[nH]c(C(=O)N5CC[C@H](O)C5)cc34)cnc21 [XIV-109] |
| < 500 | CC[C@H]1CN(C(=O)Nc2ccc(CN3CCN(C)CC3)c(C(F)(F)F)c2)Cc2cc(Oc3ccnc4[nH]c(C(=O)N(C)CCCO)cc34)cnc21 [XIV-111] |
| < 500 | CC[C@H]1CN(C(=O)Nc2ccc(CN3CCN(C)CC3)c(C(F)(F)F)c2)Cc2cc(Oc3ccnc4[nH]c(-c5nnc(C)o5)cc34)cnc21 [XIV-112] |
| < 500 | CC[C@H]1CN(C(=O)Nc2ccc(CN3CCNCC3)c(C(F)(F)F)c2)Cc2cc(Oc3ccnc4[nH]c(-c5nnc(C)o5)cc34)cnc21 [XIV-113] |
| < 500 | CC[C@H]1CN(C(=O)Nc2ccc(CN3CCN(C)CC3)c(C(F)(F)F)c2)Cc2cc(Oc3ccnc4[nH]c(-c5n[nH]c(=O)o5)cc34)cnc21 [XIV-114] |
| 5000 to 10000 | CC[C@@H]1CN(C(=O)Nc2ccc(CN3CCN(C)CC3)c(C(F)(F)F)c2)Cc2cc(Oc3ccnn4cc(C(=O)N(C)C)nc34)cnc21 [XIV-115] |
| 5000 to 10000 | CC[C@@H]1CN(C(=O)Nc2ccc(CN3CCNCC3)c(C(F)(F)F)c2)Cc2cc(Oc3ccnn4cc(C(=O)N(C)C)nc34)cnc21 [XIV-116] |
| 500 to 5000 | CC[C@H]1CN(C(=O)Nc2ccc(CN3CCN(C)CC3)c(C(F)(F)F)c2)Cc2cc(Oc3ccnn4cc(C(=O)NC)nc34)cnc21 [XIV-120] |
| < 500 | CC[C@H]1CN(C(=O)Nc2ccc(CN3CCN(C)CC3)c(C(F)(F)F)c2)Cc2cc(Oc3ncnc4[nH]c(C(=O)NC)cc34)cnc21 [XIV-121] |
| < 500 | CC[C@H]1CN(C(=O)Nc2ccc(CN3CCNCC3)c(C(F)(F)F)c2)Cc2cc(Oc3ccnn4cc(C(=O)N(C)C)cc34)cnc21 [XIV-124] |
| < 500 | CC[C@H]1CN(C(=O)Nc2ccc(CN3CCNCC3)c(C(F)(F)F)c2)Cc2cc(Oc3ccnn4cc(C(=O)NC)cc34)cnc21 [XIV-125] |
| < 500 | CC[C@H]1CN(C(=O)Nc2ccc(CN3CCNCC3)c(C(F)(F)F)c2)Cc2cc(Oc3ncnc4[nH]c(C(=O)N(C)C)cc34)cnc21 [XIV-126] |
| < 500 | CC[C@H]1CN(C(=O)Nc2ccc(CN3CCNCC3)c(C(F)(F)F)c2)Cc2cc(Oc3ncnc4[nH]c(C(=O)NC)cc34)cnc21 [XIV-127] |
| 500 to 5000 | CC[C@H]1CN(C(=O)Nc2ccc(CN3CCNCC3)c(C(F)(F)F)c2)Cc2cc(Oc3ccnn4cc(C(=O)NC)nc34)cnc21 [XIV-129] |
| < 500 | CC[C@H]1CN(C(=O)Nc2ccc(CN3CCNCC3)c(C(F)(F)F)c2)Cc2cc(Oc3ccnc4[nH]c(-c5n[nH]c(=O)o5)cc34)cnc21 [XIV-130] |
| < 500 | CC[C@H]1CN(C(=O)Nc2ccc(CN3CCN(CC)CC3)c(C(F)(F)F)c2)Cc2cc(Oc3ccnc4[nH]c(C(=O)N(C)C)cc34)cnc21 [XIV-131] |
| < 500 | CC[C@H]1CN(C(=O)Nc2ccc(CN3CCN(C)CC3)c(C(F)(F)F)c2)Cc2cc(Oc3ccnc4[nH]c(-c5noc(=O)[nH]5)cc34)cnc21 [XIV-132] |
| < 500 | CC[C@H]1CN(C(=O)Nc2ccc(CN3CCN(C)CC3)c(C(F)(F)F)c2)Cc2cc(Oc3ccnc4[nH]c(-c5noc(C)n5)cc34)cnc21 [XIV-133] |
| < 500 | CC[C@H]1CN(C(=O)Nc2ccc(CN3CCNCC3)c(C(F)(F)F)c2)Cc2cc(Oc3ccnc4[nH]c(-c5noc(=O)[nH]5)cc34)cnc21 [XIV-135] |
| < 500 | CC[C@H]1CN(C(=O)Nc2ccc(CN3CCNCC3)c(C(F)(F)F)c2)Cc2cc(Oc3ccnc4[nH]c(-c5noc(C)n5)cc34)cnc21 [XIV-136] |
| < 500 | CC[C@H]1CN(C(=O)Nc2cc(C(F)(F)F)c(CN3CCN(C)CC3)cc2F)Cc2cc(Oc3ccnc4[nH]c(C(=O)N(C)C)cc34)cnc21 [XIV-137] |

| SMILES | IC50 [nM] |
| --- | --- |
| Cc1cc2c(Oc3cnc4c(c3)CN(C(=O)Nc3ccc(CN5CC6CCC(C5)N6)c(C(F)(F)F)c3)C[C@H]4C)ccnc2[nH]1 [XIV-101] | 500 to 5000 |
